Reference: patent publication US7402575B2, “Methods of treating inflammation” (priority 2003, dated 2008)

Tested on: E. coli sepsis in dogs
Test: Late Treatment Study: TAC given after 3.5 h of sepsis, hemodynamics
Type: in vivo, dog
Settings: for Arterial pH / HR / Hct / Lactate / Pwp / SVR: mean±SE, n=5
Protocol: In all of the studies outlined, the animals were randomized into treatment and nontreatment placebo groups (see below). The E. coli model used in these studies was identical to that previously described (6). Sepsis was induced by the intravenous infusion of 10^10 colony forming units of live E. coli (designation 011:B4). The bacteria were suspended in normal saline solution and were given over 0.5 hour. A constant infusion of approximately 5×10^9 colony forming units/hour of E. coli was then maintained for the remainder of the experiment.
The animals (16-24 kg) were initially anesthetized with thiopental sodium (20 mg/kg, intravenously) and constantly infused with sufentanil citrate (1 ug/min) and midazolam (5 ug/kg/min) (33). Drug rates were adjusted as required to abolish the palpebral reflex. The animals were placed in the supine position; the trachea was intubated with an endotracheal tube; and the lungs were mechanically ventilated at a tidal volume of 20 ml/kg. The ventilator rate was initially set to maintain blood pH at approximately 7.35 and was increased as necessary to reverse the metabolic acidosis that developed over the course of the study. Approximately 100% oxygen was inspired, so that hypoxemia would not affect the results of the study.
Under sterile conditions, the right jugular vein was percutaneously cannulated with an introducer (Arrow International, Reading, Pa.). A thermister tipped catheter was advanced from the jugular vein into the pulmonary artery to measure mean pulmonary arterial pressure (Ppa), mean pulmonary capillary wedge pressure (Pwp), mean right atrial pressure (Pra), thermodilution cardiac output (CO, Columbus Instruments, OH), and to obtain mixed venous oxygen blood samples. Another introducer was placed into the left jugular vein for administration of intravenous saline solution and the treatment or placebo drug (see below). A polyethylene catheter was also percutaneously placed into the femoral artery to measure mean blood pressure (MAP), and to obtain samples of blood for blood gas analysis, blood hematocrit (Hct), lactate concentrations, and blood cultures in some cases. Lactate was measured by an automated lactate dehydrogenase based assay (34) and was performed only in ETS and LTS because of equipment difficulties in the Pretreatment Study.
All catheters were connected to transducers (Cobe Laboratories), were referenced relative to the left atrium and were connected to a chart recorder (Astro-Med, W Warwick, R.I.). Heart rate (HR) was measured from the recorder tracing. Stroke-volume (SV) was calculated as CO/HR. Systemic vascular resistance (SVR) was calculated from [(MAP-Pra)/CO]×80. At each measurement interval (see below), a full set of measurements included MAP, CO, Ppa, Pra, Pwp, Hct, HR, SV, and arterial and mixed venous blood samples.
In the analysis, stroke work (SW) was the primary index of cardiac performance and the primary hemodynamic endpoint chosen in the in vivo studies (35,18) (see Discussion). At constant preload, SW reflects both the decreases in afterload and the changes in contractile function that accompany sepsis. SW was determined at approximately the same Pwp at each measurement interval. The baseline Pwp usually averaged ≈8-10 mmHg, and normal saline solution was given as necessary to maintain Pwp constant over the experimental period. SW was calculated from SV (MAP-Pwp).
Late Treatment Study. In LTS, the objective was to see if TAC would reverse myocardial depression once it had already been produced. TAC was administered after 3.5 hours after the initiation of bacteria and was given over a 0.5 hour in 200 ml D5W. Because it was also noted in the in vitro trabecular preparation that once lysozyme was already placed into the bath, a higher concentration of TAC was required to inhibit the effect of lysozyme, the initial dose was increased to 250 mg in LTC. […]

[1] = Late Treatment Study, 2 h posttreatment (6 h post-sepsis)
[2] = Late Treatment Study, 3.5 h post sepsis, before TAC
[3] = Late Treatment Study, immediately after TAC infusion

CC(=O)N[C@H]1[C@H](O[C@H]2[C@H](O)[C@@H](NC(C)=O)C(O)O[C@@H]2CO)O[C@H](CO)[C@@H](O[C@@H]2O[C@H](CO)[C@@H](O)[C@H](O)[C@H]2NC(C)=O)[C@@H]1O (stereo partly shown) [TAC, N,N′,N″ triacetylglucosamine]
SW once myocardial depression was observed (Late Treatment Study): little effect of treatment on SW
Hemodynamics (Late Treatment Study (FIG. 11)): no effect
Arterial pH [1]: 7.20 ± .04
HR [1]: 90 ± 9 beats/min
Hct [1]: 29 ± 6%
Lactate [1]: 1.3 ± .4 mM
Pwp [1]: 10 ± 1.6 mmHg
SVR [1]: 1280 ± 182 dynes s cm^−5
Arterial pH [2]: 7.24 ± .05
HR [2]: 113 ± 9 beats/min
Hct [2]: 26 ± 5%
Pwp [2]: 9.8 ± 1 mmHg
SVR [2]: 1200 ± 262 dynes s cm^−5
Arterial pH (Late Treatment Study, baseline): 7.34 ± .015
HR (Late Treatment Study, baseline): 60 ± 4 beats/min
Hct (Late Treatment Study, baseline): 34 ± 2%
Lactate (Late Treatment Study, baseline): .9 ± .2 mM
Pwp (Late Treatment Study, baseline): 9.4 ± 1 mmHg
SVR (Late Treatment Study, baseline): 2437 ± 343 dynes s cm^−5
Arterial pH [3]: 7.20 ± .04
HR [3]: 96 ± 8 beats/min
Hct [3]: 27 ± 5%
Lactate [3]: 1.3 ± .2 mM
Pwp [3]: 10.5 ± 1.4 mmHg
SVR [3]: 1268 ± 196 dynes s cm^−5
